We go through 1 molecule from patent US9938258B2 (Karyopharm Therapeutics Inc., priority 2012, dated 2018).

In one assay the test system is HCT-15 cell line. The assay is described as follows: MTT cell proliferation assay, HCT-15. Format: cell-based. The conditions noted are these: Homo sapiens, incubation approximately 64-72 hours. How it is done: (§1) The MTT cell proliferation assay was used to study the cytotoxic properties of the compounds. The assay was performed according to the method described by Roche Molecular Biochemicals, with minor modifications. The assay is based on the cleavage of the tetrazolium salt, MTT, in the presence of an electron-coupling reagent. The water-insoluble formazan salt produced must be solubilized in an additional step. Cells grown in a 96-well tissue culture plate were incubated with the MTT solution for approximately 4 hours. After this incubation period, a water-insoluble formazan dye formed. After solubilization, the formazan dye was quantitated using a scanning multi-well spectrophotometer (ELISA reader). […] The cells were seeded at 5,000-10,000 cells in each well of 96-well plate in 100 μL of fresh culture medium and were allowed to attach overnight. The stock solutions of the compounds were diluted in 100 μL cell culture medium to obtain eight concentrations of each test compound, ranging from 1 nM to 30 μM. […] All optical densities were measured at 490 nm using a Vmax Kinetic Microplate Reader (Molecular Devices). In most cases, the assay was performed in duplicate and the results were presented as a mean percent inhibition to the negative control±SE. The following formula was used to calculate the percent of inhibition: Inhibition (%)=(1-(ODo/OD)) ×100. […]
For orientation: Tetrazolium dyes change colour on reduction, which living cells bring about.

The next assay concerns LN18 cell line. The assay is described as follows: MTT cell proliferation assay, LN18. The class given is cell-based. The conditions noted are these: Homo sapiens, LN-18, incubation approximately 64-72 hours. How it is done:
as §1

For a further assay, the system named is MS751 cells. In words: MTT cell proliferation assay, MS751. Format: cell-based, human. The conditions noted are these: Homo sapiens, MS751, MS751 cells, approximately 64-72 hours incubation; read-out: MTT Assay IC50, MS751. An outline of the steps: (§2)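 Seeding 5,000-10,000 cells/well, overnight attachment; 8 concs, 1 nM–30 μM. MTT ~4 h, formazan solubilized, OD 490 nm. % inhibition vs negative control, mostly duplicate, mean±SE.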

The next assay deals with A549 cells. The assay is described as follows: MTT cell proliferation assay, A549. Format: cell-based. As to conditions: Homo sapiens, incubation approximately 64-72 hours. As for the experimental part:
as §1

For the next assay, the system named is Daudi cell line. In words: MTT cell proliferation assay, Daudi. Format: cell-based. The conditions noted are these: Homo sapiens, incubation approximately 64-72 hours. As for the experimental part: as §1
The subject of the next assay is 3T3 cells. The assay is described as follows: MTT cell proliferation assay, 3T3. Format: cell-based, mouse. As to conditions: Mus musculus, NIH3T3, 3T3 cells, approximately 64-72 hours incubation; read-out: MTT Assay IC50, 3T3. In outline: as §2
The test system of a further assay is MM1S cell line. The assay is described as follows: MTT cell proliferation assay, MM1S. The class given is cell-based. As to conditions: Homo sapiens, MM1.S, incubation approximately 64-72 hours. How it is done:
(§3) The MTT cell proliferation assay was used to study the cytotoxic properties of the compounds. The assay was performed according to the method described by Roche Molecular Biochemicals, with minor modifications. The assay is based on the cleavage of the tetrazolium salt, MTT, in the presence of an electron-coupling reagent. The water-insoluble formazan salt produced must be solubilized in an additional step. Cells grown in a 96-well tissue culture plate were incubated with the MTT solution for approximately 4 hours. After this incubation period, a water-insoluble formazan dye formed. After solubilization, the formazan dye was quantitated using a scanning multi-well spectrophotometer (ELISA reader). […] The cells were seeded at 5,000-10,000 cells in each well of 96-well plate in 100 μL of fresh culture medium and were allowed to attach overnight. The stock solutions of the compounds were diluted in 100 μL cell culture medium to obtain eight concentrations of each test compound, ranging from 1 nM to 30 μM. […] All optical densities were measured at 490 nm using a Vmax Kinetic Microplate Reader (Molecular Devices). In most cases, the assay was performed in duplicate and the results were presented as a mean percent inhibition to the negative control±SE. The following formula was used to calculate the percent of inhibition: Inhibition (%)=(1-(ODo/OD)) ×100.
The M24 cell line is derived from human melanoma cells. The U2OS cell line is a human osteosarcoma cell line expressing wild type p53 and Rb, but lacking p16. The MM1S cell line is a multiple myeloma cell line; the parent cell line, MM.1, was established from peripheral blood of a multiple myeloma patient who had become resistant to steroid-based therapy. The RPMI8226 cell line is derived from human B lymphocyte cells. NHDF cells are normal human dermal fibroblast cells. The MRC-5 cell line is derived from normal lung tissue of a fetus. The LN18 cell line is a human malignant glioma cell line. The DU-145 cell line is a human prostate cancer cell line. A549 cells are human adenocarcinomic human alveolar basal epithelial cells. […]

A further assay has as its system L3.6pl cell line. In words: MTT cell proliferation assay, L3.6pl. The class given is cell-based. The conditions noted are these: Homo sapiens, incubation approximately 64-72 hours. How it is done: as §1
For another assay, the system named is MOLT4 cell line. In words: MTT cell proliferation assay, MOLT4. Format: cell-based. The conditions noted are these: Homo sapiens, MOLT-4, incubation approximately 64-72 hours. As for the experimental part:
as §1

In another assay the test system is THP1 cell line. The assay is described as follows: MTT cell proliferation assay, THP1. The conditions noted are these: Homo sapiens, THP-1, incubation approximately 64-72 hours. Format: cell-based. As for the experimental part: as §1
A further assay deals with OCIAML5 cell line. The assay is described as follows: MTT cell proliferation assay, OCIAML5. The class given is cell-based. The conditions noted are these: Homo sapiens, OCI-AML-5, incubation approximately 64-72 hours. As for the experimental part: as §1
Another assay has as its system MDA-MB-231 cell line. The assay is described as follows: MTT cell proliferation assay, MDA-MB-231. Format: cell-based. The conditions noted are these: Homo sapiens, incubation approximately 64-72 hours. How it is done:
as §1

The next assay concerns Hep G2 cells. In words: MTT cell proliferation assay, Hep G2. Format: cell-based. The conditions noted are these: Homo sapiens, HepG2, incubation approximately 64-72 hours. How it is done:
as §3
The M24 cell line is derived from human melanoma cells. The U2OS cell line is a human osteosarcoma cell line expressing wild type p53 and Rb, but lacking p16. The MM1S cell line is a multiple myeloma cell line; the parent cell line, MM.1, was established from peripheral blood of a multiple myeloma patient who had become resistant to steroid-based therapy. The RPMI8226 cell line is derived from human B lymphocyte cells. NHDF cells are normal human dermal fibroblast cells. The MRC-5 cell line is derived from normal lung tissue of a fetus. The LN18 cell line is a human malignant glioma cell line. The DU-145 cell line is a human prostate cancer cell line. A549 cells are human adenocarcinomic human alveolar basal epithelial cells. The MOLT4 cell line is a human acute lymphoblastic leukemia cell line. The THP1 cell line is a human leukemic monocytic cell line derived from peripheral blood. The OCIAML5 cell line is a human acute myeloid leukemia cell line. The MDA-MB-231 cell line is a human breast adenocarcinoma cell line. The MDA-MB-468 cell line is a human breast carcinoma cell line. HL-60 cells are human promyelocytic leukemia cells. Hep G2 cells are human hepatocellular carcinoma cells. HEP 3B cells are human hepatocellular carcinoma cells. The DLD-1 cell line is a colorectal adenocarcinoma cell line. The HCT-15 cell line is a human colon carcinoma cell line. The Colo-205 cell line is derived from a human adenocarcinoma of the colon. […]

The subject of the next assay is Z138 cells. In words: MTT cell proliferation assay, Z138. The conditions noted are these: Homo sapiens, Z-138, Z138 cells, approximately 64-72 hours incubation; read-out: MTT Assay IC50, Z138. Format: cell-based. In outline:
as §2

The test system of another assay is HL-60 cells. In words: MTT cell proliferation assay, HL-60. Format: cell-based. As to conditions: Homo sapiens, incubation approximately 64-72 hours. As for the experimental part:
as §1

pIC50: −log10 of the molar value.

What is called pIC50 is −log10 of the IC50, conventionally taken in molar units. With `Nc1ccc(/C=C/C(=O)NCC2Cc3cc(-c4ccc(C(=O)N5CCOCC5)cc4)cc(Cl)c3O2)cn1` (stereo not drawn) [Compound 302, (E)-3-(6-Aminopyridin-3-yl)-N-((7-chloro-5-(4-(morpholine-4-carbonyl)phenyl)-2,3-dihydrobenzofuran-2-yl)methyl)acrylamide], the negative logarithm of the IC50 (pIC50) in the assay on HCT-15 cell line was over 7.00; in the assay on LN18 cell line, 5.30 to 7.00; with MS751 cells it was over 7.00; with A549 cells, 5.30 to 7.00; in the assay on Daudi cell line, over 7.00; with 3T3 cells it was 5.30 to 7.00. Moreover, the negative logarithm of the IC50 (pIC50) in the assay on MM1S cell line is over 7.00; in the assay with L3.6pl cell line it was 5.30 to 7.00; in the assay on MOLT4 cell line, over 7.00; in the assay with THP1 cell line, 5.30 to 7.00; in the assay on OCIAML5 cell line, over 7.00; in the assay on MDA-MB-231 cell line it was 5.30 to 7.00. For the same molecule, the pIC50 is over 7.00 with Hep G2 cells, over 7.00 in the assay on Z138 cells and 5.30 to 7.00 in the assay on HL-60 cells.
